From ChEMBL document CHEMBL1150630, “Oxidation, reduction, and methylation of carnosic acid by Nocardia” (J Nat Prod, 2002) come the findings set out here.

In the test the test system is Radical scavenging activity. Description: Antioxidant activity assessed as DPPH free radical scavenging activity after 30 mins. The format is functional.

As for `COc1c(C(C)C)cc2c(c1O)[C@@]1(CO)CCCC(C)(C)[C@@H]1CC2`, the IC50 came out at 83.4 µM.
The same measure for `CC1(C)CCC[C@@]23C(=O)OC(C[C@@H]12)c1cc(C(CO)CO)c(O)c(O)c13`: 66 µM.
For the molecule `O=C1O[C@H]([C@@H](O)CO)C(O)=C1O` [ASCORBIC ACID], the IC50 worked out at 66.8 µM.
As for `CC(C)c1cc2c(c(O)c1O)[C@@]1(C(=O)O)CCCC(C)(C)[C@@H]1CC2` [CARNOSIC ACID], the figure is 53.3 µM.
Turning to `CC(C)c1cc2c(c(O)c1O)[C@@]13CCCC(C)(C)[C@@H]1C[C@@H]2OC3=O` [CARNOSOL], the IC50 worked out at 114 µM.
Consider `CCCOC(=O)c1cc(O)c(O)c(O)c1` [PROPYL GALLATE], for which the IC50 came out at 46.1 µM.
`Oc1cccc(O)c1O` [PYROGALLOL]: the IC50 amounted to 37.8 µM.
